Source: patent publication US11098041B2 (Merck Patent GmbH, priority 2014, dated 2021)

Experiments:
[1] = system: IL-1β release by human THP-1 cells; assay: Assay D: THP-1 cells IL-1β release ELISA assay; type: cell-based; conditions: PMA and LPS, BzATP stimulation
Method: Assay D: THP-1 Cells IL-1β release ELISA Assay
The assay measures IL-1β release by human THP-1 cells after treatment with PMA and LPS in response to BzATP stimulation in order to evaluate the potency of P2X7 inhibitors. THP-1 cells (2×10^5 cells/mL) in culture medium (RPMI1640 (Gibco, #22400-089)+10% HI-FBS (Gibco, #10082-147)+1% L-Glutamine (Gibco, #25030)+1% Pen/Strep (Gibco, #15140) complemented with 0.5 μM PMA (Sigma, #P8139) were incubated for 30 min at 37° C. At the end of the incubation time, the cells were titrated and washed gently in PBS. The cells were then re-suspended to a density of 1.5×10^5 cell/mL in culture medium complemented with 10 ng/mL LPS (Sigma, #L5293). The cell suspension was dispensed (40 μL/well) into a Corning 384-well plate. After 4 hr of incubation at 37° C., the cells were treated with 20 μL of test compounds at various concentrations. The plate was incubated for 30 min at 37° C. and then the cells were treated with 20 μL of 3.2 mM BzATP (Sigma. #B6396) (0.8 mM final concentration). The plate was incubated for an additional 30 min at 37° C., and then subjected to centrifugation (4 min, 1000 rpm). Supernatant (60 μL) from each well was transferred to a 384-matrix PP plate. The plate was then stored at 4° C. (overnight) or −20° C. for longer term storage. The next day, the […] were measured using a human […] ELISA Kit (R & D systems, catalog #DY201) and read using a SpectraMax Plus 384 Microplate Reader.

full-length human BTK = full-length human BTK (Homo sapiens (Human), UniProt Q06187); assay: Assay A: microfluidic off-chip mobility shift assay against BTK enzyme; type: biochemical
full-length human BTK, sequence (Q06187 whole entry): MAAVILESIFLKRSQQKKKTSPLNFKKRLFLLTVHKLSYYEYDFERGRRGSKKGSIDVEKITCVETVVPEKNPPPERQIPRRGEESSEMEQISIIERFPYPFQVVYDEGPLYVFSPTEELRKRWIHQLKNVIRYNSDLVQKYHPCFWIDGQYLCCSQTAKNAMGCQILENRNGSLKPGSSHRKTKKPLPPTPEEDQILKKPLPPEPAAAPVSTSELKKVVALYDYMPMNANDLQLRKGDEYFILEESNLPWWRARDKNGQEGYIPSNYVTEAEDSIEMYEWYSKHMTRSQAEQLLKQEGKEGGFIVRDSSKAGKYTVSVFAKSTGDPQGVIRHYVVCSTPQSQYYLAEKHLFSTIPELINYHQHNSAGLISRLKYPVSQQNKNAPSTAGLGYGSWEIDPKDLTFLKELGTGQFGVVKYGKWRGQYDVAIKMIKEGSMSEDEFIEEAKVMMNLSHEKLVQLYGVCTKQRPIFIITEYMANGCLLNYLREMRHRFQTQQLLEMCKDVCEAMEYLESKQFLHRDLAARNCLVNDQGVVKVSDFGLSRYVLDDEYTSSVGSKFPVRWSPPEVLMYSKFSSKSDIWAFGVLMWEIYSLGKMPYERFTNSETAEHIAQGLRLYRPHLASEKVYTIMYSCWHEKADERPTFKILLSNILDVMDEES

[2] = target: BTK C481S (His-TEV-hsBTK(328-659)(C481S)) (Homo sapiens (Human), UniProt Q06187, C481S); assay: Assay B: microfluidic off-chip mobility shift assay against BTK C481S enzyme; type: biochemical; conditions: BTK C481S mutant
BTK C481S (His-TEV-hsBTK(328-659)(C481S)), sequence (Q06187 328-659 C481S): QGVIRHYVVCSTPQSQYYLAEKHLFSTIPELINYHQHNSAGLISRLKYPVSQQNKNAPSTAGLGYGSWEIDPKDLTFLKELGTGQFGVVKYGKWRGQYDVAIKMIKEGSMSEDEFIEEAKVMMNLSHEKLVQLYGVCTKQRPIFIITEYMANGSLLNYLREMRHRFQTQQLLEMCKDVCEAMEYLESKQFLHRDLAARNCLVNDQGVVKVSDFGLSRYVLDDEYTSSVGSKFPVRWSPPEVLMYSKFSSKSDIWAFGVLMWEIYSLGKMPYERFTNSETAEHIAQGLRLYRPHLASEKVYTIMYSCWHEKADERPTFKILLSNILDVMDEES
In short: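 Substrate-to-phosphopeptide conversion quantified by microfluidic mobility shift with laser-induced fluorescence; IC50 and efficacy from log[inhibitor] vs. % activity.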

[3] = system: anti-IgM-induced expression of CD69 on CD19 positive cells (B cells) in human PBMCs; assay: Assay C: PBMC IC50 assay (anti-IgM-induced CD69 expression); type: cell-based; conditions: anti-IgM stimulation
In short: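 Freshly isolated human PBMCs (2.5×10^5/well) pretreated 1 h with compound, then stimulated overnight (~16-18 h) with goat F(ab′)2 anti-human IgM. CD69 on CD19+ B cells measured by flow cytometry; IC50 from percentage CD69+ B cells versus concentration.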

LCK = LCK (Homo sapiens (Human), UniProt P06239); assay: Assay E: LCK biochemical assay (HotSpot Kinase Assay); conditions: for inhibition at 1 µM: read-out: LCK % inhibition at 1 uM test concentration (Assay E)
LCK, sequence (P06239 whole entry): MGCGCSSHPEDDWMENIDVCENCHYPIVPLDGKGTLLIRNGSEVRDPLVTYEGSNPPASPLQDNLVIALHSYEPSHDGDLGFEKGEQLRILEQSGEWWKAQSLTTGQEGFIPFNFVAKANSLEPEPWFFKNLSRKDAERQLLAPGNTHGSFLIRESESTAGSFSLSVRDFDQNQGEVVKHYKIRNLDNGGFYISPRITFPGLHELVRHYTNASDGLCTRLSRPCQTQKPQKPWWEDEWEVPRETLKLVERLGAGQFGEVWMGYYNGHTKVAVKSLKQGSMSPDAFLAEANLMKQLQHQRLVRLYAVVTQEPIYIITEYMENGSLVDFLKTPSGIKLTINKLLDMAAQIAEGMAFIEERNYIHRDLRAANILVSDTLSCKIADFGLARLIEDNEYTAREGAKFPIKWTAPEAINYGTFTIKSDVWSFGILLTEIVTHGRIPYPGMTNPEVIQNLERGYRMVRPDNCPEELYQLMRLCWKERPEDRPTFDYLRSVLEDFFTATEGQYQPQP
Method: Assay E: LCK Biochemical Assay
The standard protocol below describes the standard HotSpot Kinase Assay run by the Reaction Biology Corporation as a service.
The substrate (poly(EY) (Glu:Tyr (4:1)) and the cofactors were prepared in fresh Reaction Buffer (20 mM Hepes (pH 7.5), 10 mM MgCl2, 2 mM MnCl2, 1 mM EGTA, 0.02% Brij35, 0.02 mg/ml BSA, 0.1 mM Na3VO4, 2 mM DTT, 2% DMSO). To the substrate solution was then added the enzyme (LCK; recombinant human full-length (Genbank Accession #NP_005347); C-terminal His-tagged, expressed in insect cells), and the resulting solution was then gently mixed. The test compounds were dissolved in DMSO and then delivered into the kinase reaction mixture using acoustic liquid handling technology (Echo550; nanoliter range). The reaction mixture was incubated for 20 min at RT and then treated with ^33P-ATP to initiate the reaction. After 2 hours of incubation at RT, kinase activity was detected using Reaction Biology Corporation's proprietary P81 filter-binding method.

| IC50 [1] [nM] | IC50 (full-length human BTK) [nM] | IC50 [2] [nM] | inhibition at 1 µM (LCK) [%] | IC50 (LCK) [µM] | Structure (SMILES) | IC50 [3] [nM] |
| --- | --- | --- | --- | --- | --- | --- |
| 100 to 1000 | < 100 | < 100 |  |  | Cc1c(NC(=O)c2ccc(C(C)(C)C)cc2)cccc1-c1ccnc2[nH]c(-c3ccc(C(=O)O)cc3)nc12 [Example 153, 4-{7-[3-(4-tert-Butyl-benzoylamino)-2-methyl-phenyl]-3H-imidazo[4,5-b]pyridin-2-yl}-benzoic acid] | > 5000 |
|  | < 100 | < 100 | 29 |  | Cn1cc(-c2nc3c(-c4ccc(CN5Cc6cc(C(C)(C)C)sc6C5=O)c(F)c4)ccnc3[nH]2)cn1 [Example 92, 2-tert-Butyl-5-([2-fluoro-4-[2-(1-methyl-1H-pyrazol-4-yl)-3H-imidazo[4,5-b]pyridin-7-yl]phenyl]methyl)-4H,5H,6H-thieno[2,3-c]pyrrol-6-one] | 100 to 1000 |
| < 100 | < 100 | < 100 |  |  | CC(C)(C)c1ccc2c(c1)CCN(Cc1ccc(-c3ccnc4[nH]c(-c5ccc(C(=O)N6CCOCC6)cc5)nc34)cc1)C2=O [Example 115, 6-tert-Butyl-2-(4-{2-[4-(morpholine-4-carbonyl)-phenyl]-3H-imidazo[4,5-b]pyridin-7-yl}-benzyl)-3,4-dihydro-2H-isoquinolin-1-one] | 100 to 1000 |
|  | < 100 |  | 7.3 |  | CC(C)(C)c1nc(C(=O)NCc2ccc(-c3ccnc4[nH]c(-c5ccc(N6CCC(F)(F)CC6)cn5)nc34)cc2F)no1 [Example 82, 5-tert-Butyl-N-[(4-[2-[5-(4,4-difluoropiperidin-1-yl)pyridin-2-yl]-3H-imidazo[4,5-b]pyridin-7-yl]-2-fluorophenyl)methyl]-1,2,4-oxadiazole-3-carboxamide] | < 100 |
| < 100 | < 100 | < 100 |  |  | CC(C)(C)c1ccc(C(=O)NCc2ccc(-c3ccnc4[nH]c(-c5ccc(C(=O)N6CCOCC6)cc5)nc34)cc2F)cc1 [Example 118, 4-tert-Butyl-N-(2-fluoro-4-{2-[4-(morpholine-4-carbonyl)-phenyl]-3H-imidazo[4,5-b]pyridin-7-yl}-benzyl)-benzamide] | < 100 |
| 100 to 1000 | < 100 | < 100 |  |  | O=C(c1ccc(-c2nc3c(-c4cccc(N5CCc6cc(C7CC7)ccc6C5=O)c4CO)ccnc3[nH]2)cc1)N1CCOCC1 [Example 6, 6-Cyclopropyl-2-(2-hydroxymethyl-3-{2-[4-(morpholine-4-carbonyl)-phenyl]-3H-imidazo[4,5-b]pyridin-7-yl}-phenyl)-3,4-dihydro-2H-isoquinolin-1-one] | 1000 to 5000 |

Second part, the compound before the results:

| Structure (SMILES) | IC50 [1] [nM] | IC50 (full-length human BTK) [nM] | IC50 [2] [nM] | inhibition at 1 µM (LCK) [%] | IC50 (LCK) [µM] | IC50 [3] [nM] |
| --- | --- | --- | --- | --- | --- | --- |
| CC(C)(C)c1nnc(C(=O)NCc2ccc(-c3ccnc4[nH]c(C5=CCOCC5)nc34)cc2F)o1 [Example 138, 5-(tert-butyl)-N-(4-(2-(3,6-dihydro-2H-pyran-4-yl)-3H-imidazo[4,5-b]pyridin-7-yl)-2-fluorobenzyl)-1,3,4-oxadiazole-2-carboxamide] |  | < 100 |  | 40 |  | 100 to 1000 |
| Cn1cc(-c2nc3c(-c4ccc(CNC(=O)N5CC(OC(C)(C)C)C5)c(F)c4)ccnc3[nH]2)cn1 [Example 55, 3-(tert-Butoxy)-N-([2-fluoro-4-[2-(1-methyl-1H-pyrazol-4-yl)-3H-imidazo[4,5-b]pyridin-7-yl]phenyl]methyl)azetidine-1-carboxamide] | 1000 to 5000 |  |  |  |  | 100 to 1000 |
| Cn1cc(-c2nc3c(-c4ccc(CNC(=O)c5cc(C(C)(C)C)no5)c(F)c4)ccnc3[nH]2)cn1 [Example 144, 3-(tert-butyl)-N-(2-fluoro-4-(2-(1-methyl-1H-pyrazol-4-yl)-3H-imidazo[4,5-b]pyridin-7-yl)benzyl)isoxazole-5-carboxamide] |  |  |  | 49 |  |  |
| CC(C)(C)c1nc(C(=O)NCc2ccc(-c3ccnc4[nH]c(-c5ccc(N6CCC(O)CC6)cn5)nc34)cc2F)no1 [Example 84, 5-tert-butyl-N-[(2-fluoro-4-[2-[5-(4-hydroxypiperidin-1-yl)pyridin-2-yl]-3H-imidazo[4,5-b]pyridin-7-yl]phenyl)methyl]-1,2,4-oxadiazole-3-carboxamide] |  | < 100 | < 100 |  | 585 | < 100 |
| CC1CN(c2ccc(-c3nc4c(-c5ccc(CNC(=O)c6noc(C(C)(C)C)n6)c(F)c5)ccnc4[nH]3)nc2)CC(C)O1 (stereo not drawn) [Example 81, 5-tert-Butyl-N-[(4-[2-[5-(2,6-dimethylmorpholin-4-yl)pyridin-2-yl]-3H-imidazo[4,5-b]pyridin-7-yl]-2-fluorophenyl)methyl]-1,2,4-oxadiazole-3-carboxamide] |  | < 100 | < 100 | 15 |  | < 100 |
| CN(C)c1ccc(-c2nc3c(-c4ccc(CNC(=O)c5noc(C(C)(C)C)n5)c(F)c4)ccnc3[nH]2)nc1 [Example 146, 5-tert-Butyl-[1,2,4]oxadiazole-3-carboxylic acid 4-[2-(5-dimethylamino-pyridin-2-yl)-3H-imidazo[4,5-b]pyridin-7-yl]-2-fluoro-benzylamide] |  | < 100 |  | 11 |  | 100 to 1000 |
| Cc1c(NC(=O)c2ccc(C(C)(C)C)cc2)cccc1-c1ccnc2[nH]c(-c3cnn(C)c3)nc12 [Example 9, 4-tert-Butyl-N-{2-methyl-3-[2-(1-methyl-1H-pyrazol-4-yl)-3H-imidazo[4,5-b]pyridin-7-yl]-phenyl}-benzamide] | 100 to 1000 |  |  |  |  | 1000 to 5000 |
| Cn1cc(-c2nc3c(-c4ccc(CNC(=O)c5ccc(C(C)(C)C)cc5)c(C(F)(F)F)c4)ccnc3[nH]2)cn1 [Example 108, 4-tert-Butyl-N-{4-[2-(1-methyl-1H-pyrazol-4-yl)-3H-imidazo[4,5-b]pyridin-7-yl]-2-trifluoromethyl-benzyl}-benzamide] |  | < 100 | < 100 | 17 |  | < 100 |
| CN1CC=C(c2ccc(-c3nc4c(-c5cccc(N6CCOc7cc(C8CC8)cc(F)c7C6=O)c5CO)ccnc4[nH]3)cc2)CC1 [Example 3, 8-Cyclopropyl-6-fluoro-4-[2-(hydroxymethyl)-3-[2-[4-(1-methyl-1,2,3,6-tetrahydropyridin-4-yl)phenyl]-3H-imidazo[4,5-b]pyridin-7-yl]phenyl]-2,3,4,5-tetrahydro-1,4-benzoxazepin-5-one] | 100 to 1000 | < 100 |  |  |  | 100 to 1000 |
| Cc1ccc(-n2ccn(-c3cccc(-c4ccnc5[nH]c(-c6ccc(C(=O)N7CCOCC7)cc6)nc45)c3C)c2=O)cc1 [Example 95, 1-[2-Methyl-3-(2-[4-[(morpholin-4-yl)carbonyl]phenyl]-3H-imidazo[4,5-b]pyridin-7-yl)phenyl]-3-(4-methylphenyl)-2,3-dihydro-1H-imidazol-2-one] | < 100 | 1000 to 5000 | 1000 to 5000 |  |  |  |
| Cc1c(NC(=O)c2ccc(C(C)(C)C)cc2)cccc1-c1ccnc2[nH]c(-c3ccc(C(=O)N4CCOCC4)cc3)nc12 [Example 5, 4-(tert-butyl)-N-(2-methyl-3-(2-(4-(morpholine-4-carbonyl)phenyl)-3H-imidazo[4,5-b]pyridin-7-yl)phenyl)benzamide] | < 100 |  |  |  |  | 1000 to 5000 |
